According to patent US20240301156A1, “FOAMABLE RESIN COMPOSITION, FOAM BODY, METHOD FOR PRODUCING FOAM BODY, AND FOAMABLE CURING AGENT” (MITSUBISHI GAS CHEMICAL COMPANY, INC., priority 2021, published 2024):

How the values were obtained:
[1] = Absorption of carbon dioxide into amine compound: percentage increase of mass; format: physicochemical; conditions: amine left to stand in air at 23° C. and 50% RH for a week
Description: An amine compound, MXDA (40 mmol), was put in a container and left to stand in an air environment at 23° C. and 50% RH for a week. By doing so MXDA and carbon dioxide in the air were reacted to give a carbonate of MXDA. At that stage, to suppress uneven reaction, the container in which the amine compound was placed was shaken as necessary so as not to leave unreacted MXDA.
Next, increase of the mass of MXDA was measured and the percentage increase of the mass of the amine compound was calculated by the following equation.
Percentage increase of mass of amine compound [% by mass]=100×amount of increase of mass of amine compound (g)/(initial mass of amine compound (g)+amount of increase of mass of amine compound (g))

[2] = Amine value of amine compound (JIS K7237-1995 titration); format: physicochemical; conditions: 0.1 N perchloric acid-acetic acid titration
Description: The amine value was measured by the following measurement method according to JIS K7237-1995. • (1) 0.1 g of the amine compound was dissolved in 20 mL of acetic acid. • (2) The amine value was calculated by titrating the solution prepared in (1) above with 0.1 N perchloric acid-acetic acid solution using an automatic potentiometric titrator (AT-610 made by Kyoto Electronics Manufacturing Co., Ltd.) (Acid Dissociation Constant (pKa) of Amine Compound)

[3] = Maximum endothermic temperature of amine compound (DSC); format: physicochemical; conditions: DSC 23 to 350° C., 10° C./minute, nitrogen; evaporation of the amine compound
Description: The amine compound (a1) is heated at a heating rate of 10° C./minute from 23° C. to 350° C. and the temperature at which the amount of heat absorbed due to evaporation of the amine compound (a1) reaches the maximum is measured, and the temperature is defined as the maximum endothermic temperature of the amine compound (a1).
The maximum endothermic temperature of the amine compound was measured by subjecting the amine compound to DSC as described below. First, differential scanning calorimetry of the amine compound was performed under conditions of a temperature range of 23 to 350° C., a heating rate of 10° C./minute and a nitrogen atmosphere using a differential thermogravimeter (product name DTG-60 made by Shimadzu Corporation). The temperature at which the amount of heat absorbed due to the evaporation of the amine compound was the maximum was calculated from the DSC curve obtained, and the temperature was determined as the maximum endothermic temperature of the amine compound.

[4] = Maximum carbon dioxide (CO2) release temperature of amine compound (DSC); format: physicochemical; conditions: amine left in air at 23° C., 50% RH for 24 hours; DSC 23 to 250° C., 10° C./minute, nitrogen
Description: The amine compound (a1) with carbon dioxide absorbed is heated at a heating rate of 10° C./minute from 23° C. to 250° C., and the temperature at which the amount of heat absorbed due to desorption of carbon dioxide reaches the maximum is measured, and the temperature is defined as the maximum carbon dioxide release temperature. In this regard the amine compound (a1) with carbon dioxide absorbed may be prepared by leaving 5 mmol of the amine compound (a1) to stand in air at 23° C. and 50% RH for 24 hours.
A carbon dioxide detector and a Petri dish were placed in an openable desiccator (inner dimension: 370 mm×260 mm×272 mm). Subsequently the amine compound (5 mmol) was added to the Petri dish in the desiccator and the door was immediately closed to leave the amine compound to stand in the desiccator in an air environment at 23° C. and 50% RH for 24 hours. The initial concentration of carbon dioxide was adjusted to about 400 ppm.
Then the amine compound was removed from the desiccator to give an amine compound with carbon dioxide absorbed. The maximum carbon dioxide release temperature of the amine compound with carbon dioxide absorbed was measured by subjecting the amine compound to DSC as described below. First, differential scanning calorimetry of the amine compound was performed under conditions of a temperature range of 23 to 250° C., a heating rate of 10° C./minute and a nitrogen atmosphere using a differential thermogravimeter (product name DTG-60 made by Shimadzu Corporation). The temperature at which the amount of heat absorbed due to the desorption of carbon dioxide was the maximum was calculated from the DSC curve obtained, and the temperature was determined as the maximum carbon dioxide release temperature of the amine compound.

[5] = Acid dissociation constant (pKa) of amine compound, acid-base titration; conditions: purified water
Description: (§1) The acid dissociation constant of the amine compound (a1) is measured by the following measurement method based on acid-base titration. • (1) 0.2 g of the amine compound (a1) is dissolved in 30 mL of purified water. • (2) The acid dissociation constant (pKa) is calculated by titrating the solution prepared in (1) above with 0.1 N perchloric acid-acetic acid solution using an automatic potentiometric titrator (e.g., AT-610 made by Kyoto Electronics Manufacturing Co., Ltd.).
(§2) The acid dissociation constant of the amine compound was measured by the following measurement method. • (1) 0.2 g of the amine compound was dissolved in 30 mL of purified water. • (2) The acid dissociation constant (pKa) was calculated by titrating the solution prepared in (1) above with 0.1 N perchloric acid-acetic acid solution using an automatic potentiometric titrator (AT-610 made by Kyoto Electronics Manufacturing Co., Ltd.).
(§3) The temperature in the measurement was 25±2° C.

Description for physchem: as §1, §2, §3

Percentage increase of mass [1]	Amine value [2]	Maximum endothermic temperature [3]	Maximum CO2 release temperature [4]	pKa [5]	SMILES	pKa (physchem)
24.1 % by mass	824 mg KOH/g	183.5 °C	135.5 °C	–	NCc1cccc(CN)c1 [MXDA, metaxylylenediamine]	–
25.9 % by mass	789 mg KOH/g	160.9 °C	125.7 °C	–	NCC1CCCC(CN)C1 (centres unmarked) [1,3-BAC, 1,3-bis(aminomethyl)cyclohexane]	–
23.5 % by mass	659 mg KOH/g	168.8 °C	114.4 °C	10.4	CC1(C)CC(N)CC(C)(CN)C1 (centres unmarked) [IPDA, isophoronediamine]	–
43.7 % by mass	1303 mg KOH/g	140.2 °C	81.9 °C	8.9	NCCN1CCNCC1 [AEP, N-(2-aminoethyl)piperazine]	–

SMILES	Percentage increase of mass [1]	Amine value [2]	Maximum endothermic temperature [3]	Maximum CO2 release temperature [4]	pKa [5]	pKa (physchem)
NC1CCC(CC2CCC(N)CC2)CC1 (centres unmarked) [PACM, 4,4′-methylenebis(cyclohexylamine)]	12.2 % by mass	533 mg KOH/g	218.5 °C	53.0 °C	–	10.3
